Measurements from patent publication US11078496B2, “System for F-box hormone receptor regulated protein expression in mammalian cells” (ICAHN SCHOOL OF MEDICINE AT MOUNT SINAI, priority 2016, dated 2021).

Tests used:
AID^47-NANOG (A-NANOG) = target: T1, AID^47-NANOG (A-NANOG) (UniProt P93830+Q7XVM8); assay: Auxin-dependent depletion of A-NANOG in mESCs (western blot); format: cell-based, mouse
T1 construct: (encoding NP_001052659); 47-amino acid segment that corresponds to amino acids 63-109 of A. thaliana IAA17; expressed in transfected cells; host or cells: CCE mESCs (lentiviral pRAIDRS)
T1 sequence (Q7XVM8 whole entry, the tested form may be a part): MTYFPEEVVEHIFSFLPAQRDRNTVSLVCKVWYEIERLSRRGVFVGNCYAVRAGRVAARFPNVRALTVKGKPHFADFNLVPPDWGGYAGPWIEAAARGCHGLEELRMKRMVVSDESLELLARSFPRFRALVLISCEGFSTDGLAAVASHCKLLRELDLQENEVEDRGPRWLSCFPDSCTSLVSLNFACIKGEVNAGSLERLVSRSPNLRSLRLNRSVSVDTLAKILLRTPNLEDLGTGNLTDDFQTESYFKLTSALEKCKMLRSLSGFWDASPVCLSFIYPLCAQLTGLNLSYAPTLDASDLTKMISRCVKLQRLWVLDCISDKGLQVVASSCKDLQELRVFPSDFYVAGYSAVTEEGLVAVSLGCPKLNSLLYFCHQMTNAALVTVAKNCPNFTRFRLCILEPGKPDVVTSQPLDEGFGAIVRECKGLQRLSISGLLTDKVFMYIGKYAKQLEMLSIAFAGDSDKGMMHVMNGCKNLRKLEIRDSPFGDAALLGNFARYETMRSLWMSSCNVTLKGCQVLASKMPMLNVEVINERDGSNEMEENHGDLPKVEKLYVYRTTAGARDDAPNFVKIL
T1 sequence (P93830 63-109): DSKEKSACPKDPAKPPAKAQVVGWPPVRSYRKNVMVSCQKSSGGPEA
Protocol: FIGS. 3A-3D illustrate an auxin-degradable NANOG rescue system in mESCs. CCE mESCs were infected with pRAIDRS AID^47-NANOG (A-NANOG) or GFP-AID^47 (“GFP-A”) and selected clones with ESC morphology were analyzed for the effect of auxin (“IAA”) treatment. FIG. 3A is a western blot analysis depicting endogenous NANOG (*) and A-NANOG (**) in parental mESCs, and in the indicated clones. β-Actin serves as a loading control. Experiment was repeated three times and a representative blot is presented. FIG. 3B are images of mESC clones plated at low density, grown in the presence of ethanol (“Con”) or auxin (“IAA”) for 3-4 days and assayed for AP activity. GFP-A mESCs reached the desired confluency a day earlier and therefore the images were taken on different days. FIG. 3C are bright-field images showing representative morphology of A-NANOG mESCs following 3 days of ethanol (“Con”) or auxin (“IAA”) treatment (upper part) and merged bright-field and GFP fluorescence images of ethanol or auxin-treated GFP-A mESCs (lower part). Scale bars, 100 μm. […] All cells were subjected to the same concentration of ethanol for the duration of experiment. Quantitative real-time PCR analysis was performed for selected self-renewal and differentiation markers, and normalized expression levels are represented as a heatmap. […] See also FIGS. 4A-4F and FIG. 15. […]

human ESCs = assay: mRNA-Seq of H9 hESCs treated with coronatine; format: cell-based; details: H9 cells, 50 μM coronatine, 2 days

| SMILES | depletion of A-NANOG (AID^47-NANOG (A-NANOG); A-NANOG #2 mESCs, 50 μM auxin, 30 minutes, western blot) | time for >95% degradation of NANOG (AID^47-NANOG (A-NANOG); pRAIDRS system, auxin-dependent protein depletion) | effect on global gene expression patterns (human ESCs; mRNA-Seq) | genes with differential expression between coronatine and control samples (human ESCs; P<0.05 and fold change >2 in both replicates) |
| --- | --- | --- | --- | --- |
| O=C(O)Cc1c[nH]c2ccccc12 [auxin, indole-3-acetic acid] | complete depletion | 20 to 30 min |  |  |
| CC[C@H]1C=C(C(=O)N[C@@]2(C(=O)O)C[C@@H]2CC)[C@H]2CCC(=O)[C@H]2C1 [coronatine, Coronatine] |  |  | does not affect global gene expression patterns | only two genes |
